From patent US10813981B2, “Saposin B binds the lipofuscin bisretinoid A2E and prevents its enzymatic and photo degradation” (Syracuse University, priority 2017, dated 2020) come the findings set out here.

Residue numbers refer to the chain shown, from its start.

The target in assay [1] is T1, SapB (Homo sapiens, UniProt P07602).
T1 construct: made in house; host or cells: E. coli
T1 sequence (P07602 195-273 limits assumed): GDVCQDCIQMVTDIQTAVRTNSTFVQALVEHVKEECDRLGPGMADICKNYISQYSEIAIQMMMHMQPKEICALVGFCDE
Nature of the assay: Fluorescence quenching titration of SapB with ligand (double logarithmic Stern-Volmer analysis). The format is binding. Particulars: 40 μM SapB, 50 mM phosphate buffer pH 5.5, average of three runs; for Kd: read-out: LogKA of binding by SapB (converted). The protocol:
A2E and SapB were prepared and purified according to literature reports. To determine the A2E/protein binding stoichiometry, a fluorescence titration was carried out by incrementally adding small amounts of A2E to a solution of SapB (FIG. 2). […] A double logarithmic plot of
Fluorescence quenching measurements were performed on a Varian Cary Eclipse fluorimeter equipped with a QNW Peltier temperature controller. The experiments were conducted at 25.00±0.01° C. in 50 mM phosphate buffer, pH 5.50 or 7.40 using 278 nm excitation wavelength for sapB emission spectra at 325 nm (FIG. 2) or 444 nm excitation for A2E emission at 602 nm (FIG. 3) with excitation and emission monochromators bandwidth of 5 nm each. The fluorescence quenching data were analyzed using OriginLab software version 8.
The interaction of SapB (prepared as described above) with a variety of ligands was followed by monitoring the quenching of the fluorescence intensities of the protein's tyrosine residues upon binding (FIG. 12 Panels a-f).
For each ligand tested 40 μM SapB in 50 mM phosphate buffer at pH 5.5 was titrated with ligand and quenching was monitored at the fluorescence maxima at 330 nm. […] All of the fluorescence data were analyzed by a double logarithmic Stern-Volmer plot, shown for all ligands, using the emission maxima to determine binding affinity, presented in Table 3, and using the following equation
Materials and Methods—Saposin B (SapB) was prepared and purified as described above. Briefly, SapB solutions in this study were prepared in 50 mM phosphate buffer, pH 5.5. […] Ligand solutions were prepared in 100% dimethylformamide (DMF) to a concentration of 2 mM, with the exception of hydoxychloroquine (HCQ), which was prepared in 50 mM phosphate buffer, pH 5.5. […] 4.2. Fluorescence Spectroscopy. Fluorescence quenching measurements were performed on a Varian Cary Eclipse fluorimeter equipped with a QNW Peltier temperature controller. The binding experiments were conducted at 25.00±0.01° C. in 50 mM phosphate buffer, pH 5.5, using 278 nm excitation wavelength for SapB emission spectra at 330 nm (FIG. 1a-f) with excitation and emission monochromators bandwidth of 5 nm each. Temperature sensitive binding experiments were performed between 20.00±0.01 and 40.00±0.01° C. using 278 nm excitation wavelength for SapB emission spectra at 331 nm, with excitation and emission monochromators bandwidth of 5 nm each. The fluorescence quenching data were analyzed using OriginLab software version 8.

Assay [2] has as its target T1, SapB. Nature of the assay: Temperature dependent fluorescence binding assay, SapB with ATO. Particulars: 25° C.; read-out: KA at 25° C., SapB-ATO. The protocol:
Isothermal titration calorimetry has shown that [SapB-ATO]complex formation has a larger enthalpic contribution than [SapB-CQ]complex and [SapB-CoQ10]complex. Thus, the shift in binding affinity between [SapB-ATO]complex and [[…]-ATO]complex binding may be due to a shift in the thermodynamics of binding. In order to test this, temperature dependent fluorescence studies were performed with […] and ATO, as well as with SapB and ATO. Fluorescence titration experiments were carried out at five different temperatures for each of the […]-ATO and SapB-ATO experiments (FIG. 14). At each temperature, protein was prepared in phosphate buffer solution and ATO was then added via titration. The quenching of SapB or […] fluorescence was monitored at 330 nm and the KA was calculated via double logarithmic Stern-Volmer analysis. The best-fit plot of InKeq vs. 1/T, where was used to calculate the standard enthalpy, entropy, and Gibb's Free energy of binding for the formation of [[…]-ATO]complex and Materials and Methods-Saposin B (SapB) was prepared and purified as described above. […] Fluorescence Spectroscopy. Fluorescence quenching measurements were performed on a Varian Cary Eclipse fluorimeter equipped with a QNW Peltier temperature controller. […] The fluorescence quenching data were analyzed using OriginLab software version 8.

In assay [3] the target is T2, SapB mutant E69A (Homo sapiens, UniProt P07602, E263A).
T2 construct: is a product of the post-translational cleavage of prosaposin, along with SapA, SapC, and SapD
T2 sequence (P07602 195-273 E263A): T1 sequence (P07602 195-273 limits assumed) with E69A
Nature of the assay: Fluorescence binding assay (Stern-Volmer and temperature dependent), E69A with ATO. Particulars: 25° C.; read-out: KA at 25° C., E69A-ATO. On the procedure: The deviation observed for [SapB-ATO]complex from the trend warranted further investigation. In order to examine this deviation, a previously described SapB mutant […] (denoted as […] from here on) was used. Fluorescence studies were performed with […] and ATO as described herein for wild type SapB. […] Isothermal titration calorimetry has shown that [SapB-ATO]complex formation has a larger enthalpic contribution than [SapB-CQ]complex and [SapB-CoQ10]complex. Thus, the shift in binding affinity between [SapB-ATO]complex and [[…]-ATO]complex binding may be due to a shift in the thermodynamics of binding. In order to test this, temperature dependent fluorescence studies were performed with […] and ATO, as well as with SapB and ATO. Fluorescence titration experiments were carried out at five different temperatures for each of the […]-ATO and SapB-ATO experiments (FIG. 14). At each temperature, protein was prepared in phosphate buffer solution and ATO was then added via titration. The quenching of SapB or […] fluorescence was monitored at 330 nm and the KA was calculated via double logarithmic Stern-Volmer analysis. […] Fluorescence Spectroscopy. Fluorescence quenching measurements were performed on a Varian Cary Eclipse fluorimeter equipped with a QNW Peltier temperature controller. […] The fluorescence quenching data were analyzed using OriginLab software version 8.

Assay [4] has as its target T3, pre-formed [SapB-Ligand]complex (Homo sapiens, UniProt P07602).
T3 construct: is a product of the post-translational cleavage of prosaposin, along with SapA, SapC, and SapD; made in house; host or cells: E. coli
T3 sequence (P07602 195-273 limits assumed): T1 sequence (P07602 195-273 limits assumed)
Nature of the assay: Competition / order of addition fluorescence binding with pre-formed SapB complexes. Particulars: A2E fluorescence at 602 nm, excitation 444 nm, pH 5.5. On the procedure:
We have reported in an earlier study the binding properties of SapB to CoQ10 (a bone fide substrate). To determine whether it binds to the same binding site on the protein or displaces A2E from SapB, a series of fluorescence titration experiments in the presence and absence of CoQ10 were performed.
An 800 μL, 20 μM SapB to 10 μM CoQ10 complex was made in pH 5.5 50 mM phosphate buffer. The complex was formed at room temperature in a 1 mL glass vial with gentle stirring for 10 minutes. The entire solution was then transferred to a clear fluorescence cuvette. Fluorescence experiments were performed under emission conditions on a Cary Eclipse Fluorescence Spectrophotometer, with an excitation wavelength of 444 nm, emission wavelength range of 500-800 nm, excitation slit width set to 10 nm, and emission slit width set to 10 nm. […] Analysis of A2E binding the SapB-CoQ10 complex was performed by tracking fluorescence intensity at A2E's peak emission wavelength of 602 nm and plotting it against the concentration of A2E added per each injection.
A SapB-ATO complex was formed by adding 20 μL of the experimental stock to 1 mL of the SapB experimental stock for a final volume of 1020 μL in a 1.5 mL Eppendorf tube. […] The entire 1020 μL was then transferred to a clear fluorescence cuvette. […]

As for `CC1=C(/C=C/C(C)=C/C=C/C(C)=C/C=C/C=C(C)/C=C/C=C(\C)C=O)C(C)(C)CCC1` [Apocarotenal, apo-carotenal], the “LogKA of binding by SapB” value in assay [1] is listed as 4.618. `O=C1C(O)=C([C@H]2CC[C@H](c3ccc(Cl)cc3)CC2)C(=O)c2ccccc21` [Atovaquone, atovaquone]: the Kd in assay [1] was 0.0288 µM; in assay [2], 0.112 µM; in assay [3], 58.5 µM. On to `COC1=C(OC)C(=O)C(C/C=C(\C)CC/C=C(\C)CC/C=C(\C)CC/C=C(\C)CC/C=C(\C)CC/C=C(\C)CC/C=C(\C)CC/C=C(\C)CCC=C(C)C)=C(C)C1=O` [Coenzyme Q9], for which the “LogKA of binding by SapB” value in assay [1] was found to be 6.196. On to `CCN(CCO)CCCC(C)Nc1ccnc2cc(Cl)ccc12` (stereo not drawn) [Hydoxychloroquine, hydroxychloroquine], for which the Kd in assay [1] was 155 µM.

As for “phosphatidyl-choline [Phosphatidylcholine]”, the “LogKA of binding by SapB” value in assay [1] worked out at 6.075. In the case of `CCN(CC)CCCC(C)Nc1ccnc2cc(Cl)ccc12` (stereo not drawn) [Chloroquine, chloroquine], the Kd in assay [1] was 70.1 µM.

As to `COC1=C(OC)C(=O)C(C/C=C(\C)CC/C=C(\C)CC/C=C(\C)CC/C=C(\C)CC/C=C(\C)CC/C=C(\C)CC/C=C(\C)CC/C=C(\C)CC/C=C(\C)CCC=C(C)C)=C(C)C1=O` [Coenzyme Q10, coenzyme Q10], the “A2E binding on titration into SapB pre-complexed with the ligand” value in assay [4] was “identical fluorescence titration pattern”. The Kd in assay [1] is 0.0631 µM. In the case of phosphatidylethanolamine, the “LogKA of binding by SapB” value in assay [1] came out at 5.227.

On to `COC1=C(OC)C(=O)C(C/C=C(\C)CC/C=C(\C)CC/C=C(\C)CCC=C(C)C)=C(C)C1=O` [Coenzyme Q4], for which the “LogKA of binding by SapB” value in assay [1] stood at 5.103.
